Measurements reported in ChEMBL document CHEMBL1138820, “Synthesis and QSAR studies of pyrimido[4,5-d]pyrimidine-2,5-dione derivatives as potential antimicrobial agents” (2004).
Converted amounts (≈) assume the structure as drawn.

What was measured:
Type in all cases: functional
Staphylococcus aureus = test: Minimum inhibitory concentration required for antibacterial activity against Staphylococcus aureus ATCC 2943; gram positive
Aspergillus niger = test: Minimum inhibitory concentration required for antifungal activity against Aspergillus niger ATCC 16404
Bacillus subtilis = test: Minimum inhibitory concentration required for antibacterial activity against Bacillus subtilis ATCC 6633; gram positive
[1] = Minimum inhibitory concentration required for antibacterial activity against Pseudomonas diminuta MTCC 3361; gram negative; settings: Brevundimonas diminuta
Escherichia coli = test: Minimum inhibitory concentration required for antibacterial activity against Escherichia coli ATCC 13607; gram negative
Candida albicans = test: Minimum inhibitory concentration required for antifungal activity against Candida albicans ATCC 10321

Row | SMILES | MIC (Staphylococcus aureus) [µg/mL] | MIC (Aspergillus niger) [µg/mL] | MIC (Bacillus subtilis) [µg/mL] | MIC [1] [µg/mL] | MIC (Escherichia coli) [µg/mL] | MIC (Candida albicans) [µg/mL]
1 | O=C1Nc2[nH]c(=S)n(-c3ccc(O)cc3)c(=O)c2C(c2ccccc2Cl)N1/N=N/c1ccc(Cl)cc1 (configuration not stated) | 8 (≈ 14.8 µM) | 27 (≈ 50.1 µM) | 10 (≈ 18.5 µM) | 15 (≈ 27.8 µM) | 12 (≈ 22.2 µM) | 23 (≈ 42.6 µM)
2 | O=C1Nc2[nH]c(=S)n(-c3ccc(Cl)cc3)c(=O)c2C(c2ccccc2Cl)N1/N=N/c1ccc(Cl)cc1 (configuration not stated) | 9 (≈ 16.1 µM) | 29 (≈ 52 µM) | 12 (≈ 21.5 µM) | 14 (≈ 25.1 µM) | 13 (≈ 23.3 µM) | 24 (≈ 43 µM)
3 | COc1ccc(-n2c(=S)[nH]c3c(c2=O)C(c2ccccc2Cl)N(/N=N/c2ccc(Cl)cc2)C(=O)N3)cc1 (configuration not stated) | 11 (≈ 19.9 µM) | 33 (≈ 59.6 µM) | 16 (≈ 28.9 µM) | 21 (≈ 37.9 µM) | 17 (≈ 30.7 µM) | 29 (≈ 52.4 µM)
4 | O=C1Nc2[nH]c(=S)n(-c3cccc([N+](=O)[O-])c3)c(=O)c2C(c2ccccc2Cl)N1/N=N/c1ccc(Cl)cc1 (configuration not stated) | 3 (≈ 5.28 µM) | 16 (≈ 28.1 µM) | 5 (≈ 8.8 µM) | 8 (≈ 14.1 µM) | 6 (≈ 10.6 µM) | 13 (≈ 22.9 µM)
5 | O=C1Nc2[nH]c(=S)n(-c3cccc(O)c3)c(=O)c2C(c2ccccc2Cl)N1/N=N/c1ccc(Cl)cc1 (configuration not stated) | 6 (≈ 11.1 µM) | 24 (≈ 44.5 µM) | 8 (≈ 14.8 µM) | 13 (≈ 24.1 µM) | 10 (≈ 18.5 µM) | 20 (≈ 37.1 µM)
6 | Clc1ccccc1C(c1ccccc1)(c1ccccc1)n1ccnc1 [CLOTRIMAZOLE] |  | 20 (≈ 58 µM) |  |  |  | 25 (≈ 72.5 µM)
7 | Cc1ccc(-n2c(=S)[nH]c3c(c2=O)C(c2ccccc2Cl)N(/N=N/c2ccc(Cl)cc2)C(=O)N3)cc1 (configuration not stated) | 21 (≈ 39.1 µM) | 42 (≈ 78.1 µM) | 22 (≈ 40.9 µM) | 31 (≈ 57.7 µM) | 26 (≈ 48.4 µM) | 39 (≈ 72.6 µM)
8 | O=C1Nc2[nH]c(=S)n(-c3ccccc3)c(=O)c2C(c2ccccc2Cl)N1/N=N/c1ccc(Cl)cc1 (configuration not stated) | 32 (≈ 61.1 µM) | 57 (≈ 109 µM) | 37 (≈ 70.7 µM) | 46 (≈ 87.9 µM) | 40 (≈ 76.4 µM) | 52 (≈ 99.3 µM)
9 | O=C1Nc2[nH]c(=S)n(-c3cccc(Cl)c3)c(=O)c2C(c2ccccc2Cl)N1/N=N/c1ccc(Cl)cc1 (configuration not stated) | 2 (≈ 3.59 µM) | 14 (≈ 25.1 µM) | 4 (≈ 7.17 µM) | 5 (≈ 8.96 µM) | 4 (≈ 7.17 µM) | 11 (≈ 19.7 µM)
10 | O=C1Nc2[nH]c(=S)n(-c3ccc([N+](=O)[O-])cc3)c(=O)c2C(c2ccccc2Cl)N1/N=N/c1ccc(Cl)cc1 (configuration not stated) | 4 (≈ 7.04 µM) | 19 (≈ 33.4 µM) | 6 (≈ 10.6 µM) | 9 (≈ 15.8 µM) | 7 (≈ 12.3 µM) | 15 (≈ 26.4 µM)
11 | Cc1cccc(-n2c(=S)[nH]c3c(c2=O)C(c2ccccc2Cl)N(/N=N/c2ccc(Cl)cc2)C(=O)N3)c1 (configuration not stated) | 18 (≈ 33.5 µM) | 39 (≈ 72.6 µM) | 21 (≈ 39.1 µM) | 25 (≈ 46.5 µM) | 22 (≈ 40.9 µM) | 35 (≈ 65.1 µM)
12 | CC1(C)S[C@@H]2[C@H](NC(=O)[C@H](N)c3ccccc3)C(=O)N2[C@H]1C(=O)O [AMPICILLIN] | 50 (≈ 143 µM) |  | 10 (≈ 28.6 µM) | 15 (≈ 42.9 µM) | 49 (≈ 140 µM) | 
13 | O=C(O)c1ccc(-n2c(=S)[nH]c3c(c2=O)C(c2ccccc2Cl)N(/N=N/c2ccc(Cl)cc2)C(=O)N3)cc1 (configuration not stated) | 5 (≈ 8.81 µM) | 22 (≈ 38.8 µM) | 7 (≈ 12.3 µM) | 11 (≈ 19.4 µM) | 8 (≈ 14.1 µM) | 17 (≈ 30 µM)
